Reference: patent US20090203050A1 (The Regents of the University of California, priority 2005, published 2009)
“Also recorded” adds a separate entry of the source.

What was measured:
[1] = system: p38MAPK/NF-κB/YY1/STAT3 signaling pathways, Bcl-2; test: Molecular analysis of signaling in 2F7RR1; format: cell-based; conditions: 2F7-RR1
From the text: (§1) Accordingly, we examined whether inhibition of Bcl-2 in 2F7RR1 can reverse chemoresistance. Since Bcl-2 is under the transcriptional regulation of NFκB, we examined the effect of the NF-κB inhibitors Bortezomib and DHMEQ (Kikuchi, et al., Cancer Research, 63:107 (2003)).
(§2) The mechanism by which B-NHL patients resist treatment is not known. […] We examined the effect of various chemical inhibitors of this signaling pathway on chemosensitization.

Daudi-RR1 = test: DNA fragmentation (PI) apoptosis assay, Daudi-RR1
Description: (§3) Percentage of apoptotic cells was determined by evaluation of propidium iodide (PI) stained preparations of cells using an EpicXL flow-cytometer. Cellular debris was excluded from analysis by raising the forward scatter threshold, and DNA content of the intact nuclei was recorded on a logarithmic scale (Nicoletti, I. et al., J. Immunol. Methods, 139:271-9 (1991)). Percent apoptosis is represented as percentage of hypodiploid cells accumulated at sub-G0 phase of cell cycle.
(§4) Cells were left either untreated or pre-treated with DHMEQ (36), bortezomib (Goy, A. et al., Clin. Lymphoma, 4:230-7 (2004)) and PD098059 (Alessi, D. et al., J. Biol. Chem., 270:27489-94 (1995)). Escalating concentrations of various drugs were then added and the percentage of apoptosis was measured.

[2] = system: 2F7, Ramos and Daudi wild type and RR clones; test: TRAIL-mediated apoptosis in B-NHL cell lines and RR clones (DNA fragmentation); format: cell-based, human; conditions: inhibitor pretreatment 2 h, then TRAIL 18 h; rituximab-sensitive and -resistant cells
From the text: Patients with B-NHL respond initially to conventional chemotherapy and/or to immunotherapy with rituximab (alone or in combination with chemotherapy). However, patients develop resistance to these modalities and novel approaches are needed. TRAIL is a cytotoxic molecule that exerts selective anti-tumor cytotoxic activity with minimal toxicity to normal tissues. Further, TRAIL or agonist monoclonal antibody (mAb) to TRAIL receptors, DR4 and DR5, are currently being tested clinically. The present study investigated the sensitivity of B-NHL cell lines to TRAIL-mediated apoptosis using the AIDS-related NHL (ARL) B-cell line, 2F7, and the B-NHL cell lines, Ramos and Daudi. Also, to recapitulate various aspects of acquired rituximab-resistance, we have generated rituximab-resistant (RR) clones from the parental wild type (wt) cells. […] We then examined means to reverse […] resistance. We and others have reported that inhibition of NFκB activity can sensitize TRAIL-resistant tumor cells to TRAIL-induced apoptosis. […] Both the rituximab-sensitive and rituximab-resistant tumor cells were sensitized by these inhibitors, though higher concentrations were required for sensitization of the RR clones. […] Based on the findings, patients with resistant B-NHL can be treated with combination of TRAIL/anti-DR4 or DR5 mAb and NFκB inhibitors. Alternatively, these patients can be treated with agents that up-regulate TRAIL expression on host effectors (e.g., T cells, NK cells) in combination with NFκB inhibitors.

2F7RR1 clone = test: Chemotherapeutic drug-induced apoptosis in 2F7RR1; format: cell-based
From the text: as §1, §2

RR clones = test: DNA fragmentation apoptosis assay, RR clones (pooled statements); format: cell-based, human; conditions: drugs e.g. Paclitaxel, Vincristine, VP-16, CDDP, Adriamycin
Description: Thus, we examined if such sensitizing agents can reverse the resistance in the RR clones.
as §3, §4

NF-κB and AP-1 DBA = test: EMSA in RR clones; format: cell-based, human
Description: FIG. 8. […] A. Total cell lysates (40 μg) were subjected to western blot analysis using phospho-specific Abs for various components of the NF-κB and ERK1/2 pathways. B. The kinase activity of the IKK complex using IκB-α peptide (aa 1-50 including S^32/36) and ERK1/2 using MAPK kinase substrates 4 (aa 172-192) using immune-complex kinase assay. C. […] 10 μg of nuclear lysates were subjected to EMSA (n=2) (19, 20).
The DBAs were evaluated using biotin-labeled oligonucleotide AP-1 (5′-[…]-3′) (Lee, W et al., Cell, 49:741-52 (1987)) and NF-κB (5′-[…] […]-3′) probes (Harada, H. et al., Mol. Cell Biol., 14:1500-9 (1994)) using EMSA kit (Panomics, Inc., Redwood City, Calif.) according to manufacturer's instructions. 10 μg of nuclear extracts were subjected to […] 5% PAGE and developed (Jazirehi, A. et al., Cancer Research, 64:7117-26 (2004); Jazirehi, A. et al., Cancer Research, 65:264-76 (2005)).
Next, alterations in the DBA of NF-κB and AP-1 in the clones were examined.

Ramos-RR1 = test: DNA fragmentation (PI) apoptosis assay, Ramos-RR1
Description: as §3, §4

[3] = system: PI3K/Akt signaling pathway in Ramos; test: Western blot of phosphorylated and unphosphorylated Akt / NF-κB pathway proteins in Ramos; format: cell-based, human; conditions: rituximab 138 nM or (Fab′)2, 20 h
Description: After stimulation, cells (2×10^6 cells) were collected and resuspended with lysis buffer (20 mM Tris-HCl (pH 8.0), 2 mM EDTA, 3% NP-40, 100 mM NaCt, 50 mM NaF, 1 uM PMSF, 1 uM VO4, 5 ug/ml aprotinin, 5 ug/ml leupeptin). After 30 min of incubation on ice, samples were centrifuged at 10,000×g, for 10 min at 4° C. to remove cellular debris. […] The membranes were blocked for 30 min with 5% non-fat dry milk diluted in 0.05% Tween-20 Tris-buffered saline at room temperature and incubated overnight with the primary antibodies. After incubation with the primary antibody against Akt (1:300), Bad, PDK1, (1:500), phospho-specific antibodies against phospho-Akt (Ser 473, Thr 308) (1:300), phospho-PDK1 and phospho-Bad (Serl 36) (both 1:300) for overnight, the membranes were washed and incubated with HRP-coupled secondary antibodies (Cell Signaling, MA, USA). Immunoreactive bands were detected using an enhanced chemiluminiscence system (Amersham Pharmacia Biotech, UK).

Ramos cells = test: PI flow cytometry apoptosis, chemosensitization of Ramos; format: cell-based, human; conditions: pretreatment then CDDP 15 μg/ml 24 h
Description: The cells were then washed and fresh medium was added and seeded into 12 well plates (Costar, Cambridge, Mass.). Indicated concentrations of drugs (CDDP, ADR) were then added, and the cells were incubated for another 24 h for maximal cytotoxicity. At the end of the incubation period, the cells were harvested and subjected to propidium iodide (PI) (Molecular Probes, Leiden, Netherlands) staining according to the specifications of the PI staining kit (Roche Diagnostics Corporation, Indianapolis, Ind.) and evaluated by flow cytometric analysis. LY294002 was dissolved in DMSO (Sigma-Aldrich) and added up to 50 uM.
DNA fragmentation was detected by flow cytometric analysis after propidium iodide staining (Alas, S. et al., Cancer Res., 61:5137-44 (2001)). Cells with fragmented DNA were considered as apoptotic. […] Fluorescence was measured on a FACScan flow cytometer (BD Immunocytometry Systems) within 1 h. […] Cellular debris were excluded from analysis by raising the forward scatter threshold, and the DNA content of the intact nuclei was recorded on a logarithmic scale. […]
Ramos B-NHL cells were cultured in 1 ml of Opti-MEM medium without antibiotics and FBS. […] To determine Akt siRNA-induced sensitization to CDDP-induced apoptosis, following transfection the cells were treated with CDDP for 24 h, then fixed and permeabilized for PI staining, and analyzed by flow cytometry as described above.

Molecule	effect on NF-kB, YY1 and Bcl-2 expression [1]	enhanced cytotoxicity of drugs by inhibitor (Daudi-RR1)	apoptosis, DHMEQ alone (Daudi-RR1; Daudi-RR1, DHMEQ 20 μg/ml)	sensitization to TRAIL-induced apoptosis [2]	chemosensitization to drug-induced apoptosis (taxol, vincristine, ADR, CDDP, VP16) (2F7RR1 clone)	sensitization of RR clones to various chemotherapeutic drugs (RR clones)	NF-κB and AP-1 DBA (EMSA) (NF-κB and AP-1 DBA)	enhanced cytotoxicity of drugs by inhibitor (Ramos-RR1)	apoptosis, DHMEQ alone (Ramos-RR1; Ramos-RR1, DHMEQ 20 μg/ml)	effect on p-Akt (western) [3]	sensitization to CDDP-induced apoptosis (Ramos cells)
O=C(NC1=CC(=O)[C@H]2O[C@H]2[C@H]1O)c1ccccc1O [DHMEQ, dehydroxymethylepoxyquinomicin]	inhibition of NF-kB, YY1 and downregulated Bcl-2 expression	1.4-3.3 folds	4.9±1.6%	significant augmentation of apoptosis and synergy was achieved	reversal of resistance; also recorded: significantly sensitized	sensitized	preferentially reduced	2.3-5.1 folds	10.1±2.1%	–	–
Rituximab (Fab′)2: Fc-devoid Rituximab (Fab′)2	–	–	–	–	–	–	–	–	–	also inhibited p-Akt like rituximab	sensitize the cells significantly
